For assay [1], the target named is Fibroblast growth factor 2 (Homo sapiens, UniProt P09038). Kind of assay: Binding Assay. The following applies: pH 7.4. As to the method:
(§1) Human FGF-1 and FGF-2 were purchased from R&D Systems, Inc. and supplied as protein (ug) dissolved in bovine serum albumin (BSA, 50ug). Surface plasmon resonance (SPR) measurements were performed on a BIA-core 3000 from BIAcore, Uppsala, Sweden and operated by the BIAcore control software.

Assay [2] deals with Fibroblast growth factor 1 (Homo sapiens, UniProt P05230). The experiment in a line: Binding Assay. The following applies: pH 7.4. As to the method: as §1
Chain of Fibroblast growth factor 1 (P05230 whole entry): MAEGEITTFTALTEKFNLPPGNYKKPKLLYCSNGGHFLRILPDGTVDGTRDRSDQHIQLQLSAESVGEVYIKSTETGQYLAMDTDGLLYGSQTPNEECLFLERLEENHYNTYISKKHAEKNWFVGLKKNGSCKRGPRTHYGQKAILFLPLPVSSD

Structures are written as SMILES.

Chain of Fibroblast growth factor 2 (P09038 143-288 limits assumed): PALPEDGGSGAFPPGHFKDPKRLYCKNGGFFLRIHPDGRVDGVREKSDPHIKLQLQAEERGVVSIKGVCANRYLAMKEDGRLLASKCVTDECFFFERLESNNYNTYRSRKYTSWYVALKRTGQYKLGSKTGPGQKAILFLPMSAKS

On to `O=S(=O)(O)O[C@H]1[C@H](OS(=O)(=O)O)[C@@H](N(CCN([C@H]2C=C[C@@H](OS(=O)(=O)O)[C@@H](OS(=O)(=O)O)[C@@H]2OS(=O)(=O)O)[C@H]2C=C[C@@H](OS(=O)(=O)O)[C@@H](OS(=O)(=O)O)[C@@H]2OS(=O)(=O)O)[C@H]2C=C[C@@H](OS(=O)(=O)O)[C@@H](OS(=O)(=O)O)[C@@H]2OS(=O)(=O)O)C=C[C@H]1OS(=O)(=O)O` [Linked sulfated tetracyclitol, 2], for which the Kd (commonly the equilibrium constant for the complex coming apart) in assay [1] worked out at 1100 nM; in assay [2] it was 20.7 nM.
For `O=S(=O)(O)O[C@H]1[C@H](OS(=O)(=O)O)[C@@H](N(CCCCCCCCN([C@H]2C=C[C@@H](OS(=O)(=O)O)[C@@H](OS(=O)(=O)O)[C@@H]2OS(=O)(=O)O)[C@H]2C=C[C@@H](OS(=O)(=O)O)[C@@H](OS(=O)(=O)O)[C@@H]2OS(=O)(=O)O)[C@H]2C=C[C@@H](OS(=O)(=O)O)[C@@H](OS(=O)(=O)O)[C@@H]2OS(=O)(=O)O)C=C[C@H]1OS(=O)(=O)O` [Linked sulfated tetracyclitol, 8], the results for the dissociation constant (Kd) in assay [1] and in assay [2] were 108 nM and 40.4 nM, respectively.
Take `O=S(=O)(O)O[C@H]1[C@H](OS(=O)(=O)O)[C@@H](N(CCCCCCCCCCN([C@H]2C=C[C@@H](OS(=O)(=O)O)[C@@H](OS(=O)(=O)O)[C@@H]2OS(=O)(=O)O)[C@H]2C=C[C@@H](OS(=O)(=O)O)[C@@H](OS(=O)(=O)O)[C@@H]2OS(=O)(=O)O)[C@H]2C=C[C@@H](OS(=O)(=O)O)[C@@H](OS(=O)(=O)O)[C@@H]2OS(=O)(=O)O)C=C[C@H]1OS(=O)(=O)O` [Linked sulfated tetracyclitol, 10]: the equilibrium dissociation constant (Kd) was found to be 448 nM in assay [1] and 115 nM in assay [2].
For `O=S(=O)(O)O[C@H]1[C@H](OS(=O)(=O)O)[C@@H](N(CCCCCCCN([C@H]2C=C[C@@H](OS(=O)(=O)O)[C@@H](OS(=O)(=O)O)[C@@H]2OS(=O)(=O)O)[C@H]2C=C[C@@H](OS(=O)(=O)O)[C@@H](OS(=O)(=O)O)[C@@H]2OS(=O)(=O)O)[C@H]2C=C[C@@H](OS(=O)(=O)O)[C@@H](OS(=O)(=O)O)[C@@H]2OS(=O)(=O)O)C=C[C@H]1OS(=O)(=O)O` [Linked sulfated tetracyclitol, 7] the same measures were 90 nM and 8 nM.
As to `O=S(=O)(O)O[C@H]1[C@H](OS(=O)(=O)O)[C@@H](N(CCCN([C@H]2C=C[C@@H](OS(=O)(=O)O)[C@@H](OS(=O)(=O)O)[C@@H]2OS(=O)(=O)O)[C@H]2C=C[C@@H](OS(=O)(=O)O)[C@@H](OS(=O)(=O)O)[C@@H]2OS(=O)(=O)O)[C@H]2C=C[C@@H](OS(=O)(=O)O)[C@@H](OS(=O)(=O)O)[C@@H]2OS(=O)(=O)O)C=C[C@H]1OS(=O)(=O)O` [Linked sulfated tetracyclitol, 3], the equilibrium dissociation constant (Kd) came out at 248 nM in assay [1] and 7.2 nM in assay [2].
As to `O=S(=O)(O)O[C@H]1[C@H](OS(=O)(=O)O)[C@@H](N(CCCCCCN([C@H]2C=C[C@@H](OS(=O)(=O)O)[C@@H](OS(=O)(=O)O)[C@@H]2OS(=O)(=O)O)[C@H]2C=C[C@@H](OS(=O)(=O)O)[C@@H](OS(=O)(=O)O)[C@@H]2OS(=O)(=O)O)[C@H]2C=C[C@@H](OS(=O)(=O)O)[C@@H](OS(=O)(=O)O)[C@@H]2OS(=O)(=O)O)C=C[C@H]1OS(=O)(=O)O` [Linked sulfated tetracyclitol, 6], the Kd in assay [1] is 135 nM; in assay [2] it was 39 nM.
For `O=S(=O)(O)O[C@H]1[C@H](OS(=O)(=O)O)[C@@H](N(CCCCCCCCCN([C@H]2C=C[C@@H](OS(=O)(=O)O)[C@@H](OS(=O)(=O)O)[C@@H]2OS(=O)(=O)O)[C@H]2C=C[C@@H](OS(=O)(=O)O)[C@@H](OS(=O)(=O)O)[C@@H]2OS(=O)(=O)O)[C@H]2C=C[C@@H](OS(=O)(=O)O)[C@@H](OS(=O)(=O)O)[C@@H]2OS(=O)(=O)O)C=C[C@H]1OS(=O)(=O)O` [Linked sulfated tetracyclitol, 9] the same measures were 194 nM and 119 nM.
On the same counts, the results for `O=S(=O)(O)O[C@H]1[C@H](OS(=O)(=O)O)[C@@H](N(CCCCCN([C@H]2C=C[C@@H](OS(=O)(=O)O)[C@@H](OS(=O)(=O)O)[C@@H]2OS(=O)(=O)O)[C@H]2C=C[C@@H](OS(=O)(=O)O)[C@@H](OS(=O)(=O)O)[C@@H]2OS(=O)(=O)O)[C@H]2C=C[C@@H](OS(=O)(=O)O)[C@@H](OS(=O)(=O)O)[C@@H]2OS(=O)(=O)O)C=C[C@H]1OS(=O)(=O)O` [Linked sulfated tetracyclitol, 5] are 148 nM and 29.8 nM.
For `O=S(=O)(O)O[C@H]1[C@H](OS(=O)(=O)O)[C@@H](N(CCCCN([C@H]2C=C[C@@H](OS(=O)(=O)O)[C@@H](OS(=O)(=O)O)[C@@H]2OS(=O)(=O)O)[C@H]2C=C[C@@H](OS(=O)(=O)O)[C@@H](OS(=O)(=O)O)[C@@H]2OS(=O)(=O)O)[C@H]2C=C[C@@H](OS(=O)(=O)O)[C@@H](OS(=O)(=O)O)[C@@H]2OS(=O)(=O)O)C=C[C@H]1OS(=O)(=O)O` [Linked sulfated tetracyclitol, 4] the same measures were 161 nM and 25.4 nM.

Values taken from BindingDB's records for doi:10.1002/cbic.200500089 (Progen Industries, 2005).
